We go through 3 compounds from ChEMBL document CHEMBL1201862, “PubChem BioAssay data set” (2004).

Broadly, the IC50 is the point on the concentration scale where inhibition reaches its midpoint. Broadly, the EC50 is the concentration giving half of the maximal effect. As a reminder, the CC50 is the concentration giving 50% cytotoxicity. For orientation: AC50 means the midpoint of the concentration-response curve, whichever way the signal moves.

Activity calls are given as the source filed them.

For assay [1], the target named is T1, Delta-type opioid receptor (Homo sapiens, UniProt P41143). Briefly: HTS Image-Based Screen for Antagonists of the DOR Receptor. [Related pubchem assays (depositor defined):AID1777, AID1785, AID1786, AID2133]. The format is functional.
T1 sequence (P41143 whole entry): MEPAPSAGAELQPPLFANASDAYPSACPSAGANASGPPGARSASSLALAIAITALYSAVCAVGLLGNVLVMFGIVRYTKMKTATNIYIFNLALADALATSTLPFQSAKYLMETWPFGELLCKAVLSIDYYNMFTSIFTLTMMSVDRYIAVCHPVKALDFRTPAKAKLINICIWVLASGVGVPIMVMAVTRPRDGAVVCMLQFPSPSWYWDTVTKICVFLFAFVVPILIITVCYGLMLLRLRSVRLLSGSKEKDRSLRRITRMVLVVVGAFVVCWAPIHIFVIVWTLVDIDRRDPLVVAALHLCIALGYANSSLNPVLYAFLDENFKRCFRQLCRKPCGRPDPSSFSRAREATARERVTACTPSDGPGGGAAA
Assay [2] addresses Mu-type opioid receptor (Homo sapiens, UniProt P35372). Briefly: HTS Image-Based Screen for Agonists of the MOR Receptor. [Related pubchem assays (depositor defined):AID1777, AID1785, AID1786, AID2133]. The format is functional.
Assay [3] has as its target T1, Delta-type opioid receptor. Briefly: HTS Image-Based Screen for Agonists of the DOR Receptor. [Related pubchem assays (depositor defined):AID1777, AID1786, AID2133]. It is filed as functional.
Assay [4] is described as follows: growth suppression of PTEN-null colon cells, dose response, cell-based, HCT116 PTEN knockout (AID 1047).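 Note: HCT116 colon tumor cells with PTEN knocked out; cells exposed to compound for 60 hours before readout; potency for loss of cell viability measured by luminescence.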 The format is functional.
In assay [5] the target is T2, Kappa-type opioid receptor (Homo sapiens, UniProt P41145). The format is functional.
T2 sequence (P41145 whole entry): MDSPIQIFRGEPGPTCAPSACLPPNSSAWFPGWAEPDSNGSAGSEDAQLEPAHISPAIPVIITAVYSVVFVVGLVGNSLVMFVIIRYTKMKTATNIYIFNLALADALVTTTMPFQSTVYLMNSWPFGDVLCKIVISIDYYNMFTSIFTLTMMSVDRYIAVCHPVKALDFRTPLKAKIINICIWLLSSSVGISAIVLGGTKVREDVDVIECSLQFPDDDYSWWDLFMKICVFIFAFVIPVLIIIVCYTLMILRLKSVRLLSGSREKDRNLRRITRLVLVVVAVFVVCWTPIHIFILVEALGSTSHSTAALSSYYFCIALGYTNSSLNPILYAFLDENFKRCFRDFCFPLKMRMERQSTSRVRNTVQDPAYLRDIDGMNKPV
The target of assay [6] is Bifunctional protein GlmU (Mycobacterium tuberculosis, UniProt P9WMN3). Briefly: Inhibitors of Mycobacterial Glucosamine-1-phosphate acetyl transferase (GlmU). Secondary screen. Also on record: species or system Mycobacterium tuberculosis H37Rv.
Assay [7] concerns the target Beta-galactosidase (Escherichia coli, UniProt Q8VNN2). The format is functional.
Assay [8] can be described thus: growth suppression of beta-catenin-knockout colon cells, dose response, cell-based, HCT116, human colon tumor (AID 1045).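 Note: HCT116 colon tumor cells with beta catenin knocked out; cells exposed to compound for 60 hours.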 The format is functional.
Assay [9] addresses T2, Kappa-type opioid receptor. The format is functional. The source holds these as a separate data set.
Assay [10] is described as follows: THP-1 cell cytotoxicity, dose response, cytotoxicity control for non-replicating M. tuberculosis project (AID 489025). The format is functional.
The nature of assay [11]: HepG2 cell cytotoxicity, dose response, cytotoxicity control for non-replicating M. tuberculosis project (AID 489018). The note with it: Mycobacterium tuberculosis. It is filed as functional.
Assay [12] in a line: Vero E6 cell cytotoxicity, dose response, cytotoxicity control for non-replicating M. tuberculosis project, secondary assay (AID 492998). It is filed as functional, VeroE6. The note with it: Vero C1008.
Assay [13] in a line: cells. It is filed as functional.
Assay [14] concerns CHO. Briefly: cytotoxicity in TLR9-MyD88 CHO cells, dose response, cytotoxicity control for TLR9-MyD88 binding inhibitor project, cell-based, luminescence (AID 588339).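 Note: CHO cells stably coexpressing TLR9 and MyD88 fusions from primary screen; compound exposure lasted 48 hours before viability readout.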 The note with it: Cricetulus griseus. The format is functional, hamster.
The target of assay [15] is T3, Replicative DNA helicase DnaB (Mycobacterium tuberculosis, UniProt P9WMR3).
T3 sequence (P9WMR3 whole entry): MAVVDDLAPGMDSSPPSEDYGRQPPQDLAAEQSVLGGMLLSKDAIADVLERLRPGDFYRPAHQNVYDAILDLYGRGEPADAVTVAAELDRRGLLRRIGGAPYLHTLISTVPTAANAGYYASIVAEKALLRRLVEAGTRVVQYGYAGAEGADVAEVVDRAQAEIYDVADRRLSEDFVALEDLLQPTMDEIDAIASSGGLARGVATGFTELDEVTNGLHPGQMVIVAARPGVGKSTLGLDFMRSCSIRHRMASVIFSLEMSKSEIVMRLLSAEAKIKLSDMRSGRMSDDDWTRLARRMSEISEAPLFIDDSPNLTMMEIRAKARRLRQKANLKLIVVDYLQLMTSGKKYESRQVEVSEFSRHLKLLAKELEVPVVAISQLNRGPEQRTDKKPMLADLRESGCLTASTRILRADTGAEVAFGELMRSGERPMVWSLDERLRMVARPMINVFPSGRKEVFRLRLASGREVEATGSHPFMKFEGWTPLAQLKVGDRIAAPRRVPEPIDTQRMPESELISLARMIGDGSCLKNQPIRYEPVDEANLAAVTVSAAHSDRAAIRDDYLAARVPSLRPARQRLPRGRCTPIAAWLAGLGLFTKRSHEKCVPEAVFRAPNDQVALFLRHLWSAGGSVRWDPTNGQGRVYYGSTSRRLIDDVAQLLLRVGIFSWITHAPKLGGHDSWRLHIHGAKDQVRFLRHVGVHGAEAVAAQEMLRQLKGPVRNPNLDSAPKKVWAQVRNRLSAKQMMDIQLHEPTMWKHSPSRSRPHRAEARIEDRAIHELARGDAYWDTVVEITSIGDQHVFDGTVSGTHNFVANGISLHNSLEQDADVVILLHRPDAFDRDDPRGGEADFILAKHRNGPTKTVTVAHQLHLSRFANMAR
Briefly: DnaB intein splicing inhibitors, dose response, biochemical, cell-free fluorescence (AID 449749). The format is functional.

The subject of assay [16] is BJ. Briefly: cytotoxicity toward Ras-transformed BJeLR fibroblasts, dose response, cell-based, alamar blue fluorescence, cherrypicked samples (AID 2631).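 Note: confirmatory dose-response assay in RAS-dependent BJ fibroblasts engineered with TERT, LT and ST, with cytotoxicity read by fluorescence.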 It is filed as functional. As to conditions: Homo sapiens. A general note: The colour change of resazurin is a common sign of viable cells or microbes.
Assay [17] addresses T4, Protein RecA (Mycobacterium tuberculosis, UniProt P9WHJ3).
T4 sequence (P9WHJ3 whole entry): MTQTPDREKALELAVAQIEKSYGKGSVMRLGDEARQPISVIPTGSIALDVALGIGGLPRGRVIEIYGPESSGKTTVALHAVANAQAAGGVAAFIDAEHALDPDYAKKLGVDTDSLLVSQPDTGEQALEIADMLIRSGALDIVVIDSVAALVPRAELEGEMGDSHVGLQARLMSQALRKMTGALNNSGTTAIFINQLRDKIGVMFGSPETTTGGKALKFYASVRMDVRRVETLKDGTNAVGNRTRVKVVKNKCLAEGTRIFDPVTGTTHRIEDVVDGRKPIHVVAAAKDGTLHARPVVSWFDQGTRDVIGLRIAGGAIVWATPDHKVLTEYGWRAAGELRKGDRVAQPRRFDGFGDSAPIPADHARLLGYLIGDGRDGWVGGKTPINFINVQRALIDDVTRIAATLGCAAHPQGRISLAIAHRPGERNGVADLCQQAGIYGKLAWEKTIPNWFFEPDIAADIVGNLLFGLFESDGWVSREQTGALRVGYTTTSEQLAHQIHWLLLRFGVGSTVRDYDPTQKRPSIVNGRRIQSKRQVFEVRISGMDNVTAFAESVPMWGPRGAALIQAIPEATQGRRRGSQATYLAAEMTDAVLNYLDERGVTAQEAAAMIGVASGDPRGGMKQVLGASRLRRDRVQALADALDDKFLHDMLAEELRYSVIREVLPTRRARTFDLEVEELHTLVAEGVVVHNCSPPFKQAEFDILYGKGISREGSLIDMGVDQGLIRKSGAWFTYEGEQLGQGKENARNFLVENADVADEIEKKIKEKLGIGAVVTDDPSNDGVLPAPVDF
Briefly: Fluorescence Cell-Free Homogeneous Dose Retest to Identify Inhibitors of RecA-Intein Splicing Activity. [Related pubchem assays (depositor defined):AID2097, AID2223, AID489010, AID492950]. It is filed as functional.

The target of assay [18] is Beta Lactamase (Pseudomonas aeruginosa, UniProt Q932Y6). Briefly: beta-lactamase reporter inhibitor potency, dose response, artefact control for TLR9-MyD88 binding inhibitor project, BLA reporter cells, FRET fluorescence (AID 588341).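 Note: cell based assay in CHO-K1 cells stably expressing beta-lactamase.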 The format is cell-based.
Beta Lactamase, sequence (Q932Y6 whole entry): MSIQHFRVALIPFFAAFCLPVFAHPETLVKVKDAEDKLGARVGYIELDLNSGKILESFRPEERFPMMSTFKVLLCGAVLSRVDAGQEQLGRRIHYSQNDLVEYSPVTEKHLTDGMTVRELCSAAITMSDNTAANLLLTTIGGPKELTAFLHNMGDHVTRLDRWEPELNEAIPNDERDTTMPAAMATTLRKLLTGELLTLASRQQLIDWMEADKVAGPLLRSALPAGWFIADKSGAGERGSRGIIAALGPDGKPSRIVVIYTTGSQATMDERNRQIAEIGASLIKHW
A short description of assay [19]: Shn3 3'UTR reporter inhibitors, dose response, cell-based, Clone20 osteoblasts, firefly luciferase, cherry-picked (AID 624132).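 Note: firefly luciferase luminescence from reporter carrying the Shn3 3'UTR in osteoblasts.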 The format is functional.
The nature of assay [20]: HepG2 cell cytotoxicity, dose response, cytotoxicity control for Shn3 inhibitor project, CellTiter-Glo, cherry-picked (AID 624134). The format is functional, cell-based. (Cellular ATP, detected with luciferase, serves as a proxy for viable cell number.)
Assay [21] in a line: control 3'UTR Renilla luciferase suppression, dose response, counter-screen for Shn3 inhibitor project, cell-based, Clone20-Shn3RL, cherry-picked (AID 624133). The format is functional. (Counterscreens check selectivity or assay interference.)
The target in assay [22] is T5, Fatty acid synthase (Homo sapiens, UniProt P49327). Briefly: FAS thioesterase domain inhibitors, dose response, biochemical, endpoint fluorescence intensity, uHTS hits (AID 624327).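 Note: fluorescence from hydrolysis of an O-methyl fluorescein acyl ester substrate by the enzyme.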 It is filed as functional.
T5 sequence (P49327 whole entry, the tested form may be a part): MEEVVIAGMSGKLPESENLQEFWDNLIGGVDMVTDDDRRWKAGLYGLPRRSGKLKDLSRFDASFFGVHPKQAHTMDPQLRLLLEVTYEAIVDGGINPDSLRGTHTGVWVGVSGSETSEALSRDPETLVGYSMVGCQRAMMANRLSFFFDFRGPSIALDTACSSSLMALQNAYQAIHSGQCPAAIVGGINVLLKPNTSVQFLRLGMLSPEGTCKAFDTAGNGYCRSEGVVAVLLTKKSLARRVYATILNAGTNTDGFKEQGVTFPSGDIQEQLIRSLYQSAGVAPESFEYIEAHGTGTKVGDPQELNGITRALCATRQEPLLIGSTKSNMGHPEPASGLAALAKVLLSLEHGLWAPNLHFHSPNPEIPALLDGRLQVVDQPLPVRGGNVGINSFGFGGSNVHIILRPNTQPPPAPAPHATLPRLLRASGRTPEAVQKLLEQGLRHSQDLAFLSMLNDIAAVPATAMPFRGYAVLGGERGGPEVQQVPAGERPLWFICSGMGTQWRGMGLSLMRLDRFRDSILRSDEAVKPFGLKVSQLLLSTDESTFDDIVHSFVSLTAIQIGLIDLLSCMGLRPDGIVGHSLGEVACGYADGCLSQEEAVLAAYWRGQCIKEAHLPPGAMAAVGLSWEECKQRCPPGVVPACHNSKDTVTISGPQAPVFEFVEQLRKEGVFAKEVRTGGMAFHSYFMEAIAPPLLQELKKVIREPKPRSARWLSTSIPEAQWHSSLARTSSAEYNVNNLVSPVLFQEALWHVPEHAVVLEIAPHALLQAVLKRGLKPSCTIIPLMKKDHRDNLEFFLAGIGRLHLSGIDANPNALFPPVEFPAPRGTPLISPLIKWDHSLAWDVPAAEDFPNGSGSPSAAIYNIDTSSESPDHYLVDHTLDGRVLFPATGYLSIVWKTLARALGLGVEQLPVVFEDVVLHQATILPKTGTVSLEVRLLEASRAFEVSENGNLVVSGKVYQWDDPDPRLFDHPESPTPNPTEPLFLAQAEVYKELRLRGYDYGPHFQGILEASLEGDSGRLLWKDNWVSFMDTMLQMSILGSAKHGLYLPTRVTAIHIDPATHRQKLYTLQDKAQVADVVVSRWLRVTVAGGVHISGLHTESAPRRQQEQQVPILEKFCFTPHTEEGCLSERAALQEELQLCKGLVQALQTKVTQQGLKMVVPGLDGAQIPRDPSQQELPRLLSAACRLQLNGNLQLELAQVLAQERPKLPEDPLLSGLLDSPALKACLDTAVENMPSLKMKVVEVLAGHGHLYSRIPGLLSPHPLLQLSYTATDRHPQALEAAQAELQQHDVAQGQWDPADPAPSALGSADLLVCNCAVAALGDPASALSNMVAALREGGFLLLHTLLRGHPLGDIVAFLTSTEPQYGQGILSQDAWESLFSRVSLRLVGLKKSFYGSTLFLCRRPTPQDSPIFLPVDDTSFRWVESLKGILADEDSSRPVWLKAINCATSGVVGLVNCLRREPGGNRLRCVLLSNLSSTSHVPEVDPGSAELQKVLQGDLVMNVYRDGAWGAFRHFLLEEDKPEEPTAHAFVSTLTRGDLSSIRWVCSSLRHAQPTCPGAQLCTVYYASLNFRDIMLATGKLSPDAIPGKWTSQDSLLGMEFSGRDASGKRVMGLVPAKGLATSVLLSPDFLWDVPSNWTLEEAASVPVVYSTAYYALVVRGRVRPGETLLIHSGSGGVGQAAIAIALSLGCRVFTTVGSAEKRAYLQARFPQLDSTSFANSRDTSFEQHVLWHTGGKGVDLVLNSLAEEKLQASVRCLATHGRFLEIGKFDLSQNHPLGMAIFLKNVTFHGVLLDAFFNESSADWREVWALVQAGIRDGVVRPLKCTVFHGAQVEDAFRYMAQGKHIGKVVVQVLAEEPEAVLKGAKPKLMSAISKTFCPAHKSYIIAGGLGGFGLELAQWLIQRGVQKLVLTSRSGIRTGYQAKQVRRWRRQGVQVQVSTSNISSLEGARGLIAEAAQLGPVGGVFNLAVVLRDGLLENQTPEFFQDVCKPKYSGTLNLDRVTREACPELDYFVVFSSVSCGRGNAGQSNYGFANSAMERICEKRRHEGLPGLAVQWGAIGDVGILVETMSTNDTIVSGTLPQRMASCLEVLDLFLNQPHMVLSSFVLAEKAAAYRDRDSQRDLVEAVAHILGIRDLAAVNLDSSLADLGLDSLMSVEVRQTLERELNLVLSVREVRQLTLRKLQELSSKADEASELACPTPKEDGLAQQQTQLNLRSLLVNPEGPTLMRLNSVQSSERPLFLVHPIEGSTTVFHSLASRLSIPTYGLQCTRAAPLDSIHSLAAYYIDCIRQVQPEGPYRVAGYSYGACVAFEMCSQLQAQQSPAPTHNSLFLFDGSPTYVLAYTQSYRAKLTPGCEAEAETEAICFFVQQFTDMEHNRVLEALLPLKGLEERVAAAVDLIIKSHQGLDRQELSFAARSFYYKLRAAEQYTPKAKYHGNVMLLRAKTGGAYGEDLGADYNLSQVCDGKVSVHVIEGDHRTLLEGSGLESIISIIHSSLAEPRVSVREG
The target in assay [23] is T5, Fatty acid synthase. Briefly: FAS thioesterase domain inhibitors, dose response, biochemical, kinetic fluorescence intensity (AID 624326).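 Note: rate of fluorescence rise from hydrolysis of a fluorogenic O-methyl fluorescein ester substrate.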 It is filed as functional.
The nature of assay [24]: Luminescence Cell-Based Dose Retest to Confirm Inhibitors of Cancer Stem Cells. [Related pubchem assays (depositor defined):AID2717, AID2721]. It is filed as functional. The note with it: Homo sapiens.
A short description of assay [25]: cytotoxicity in HMLE control line with eGFP shRNA, dose response, counter-screen for HMLE_sh_ECad selective toxicity project, cell-based, HMLE_sh_eGFP, luminescence (AID 463074).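 Note: HMLE human mammary epithelial cells expressing control shRNA against eGFP.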 The format is functional, Homo sapiens.
Assay [26] in a line: Luminescence Cell-Based/Microorganism Confirmation at Dose of Inhibitors of Trypanosoma cruzi Infection. [Related pubchem assays: 1885, 1968 ]. It is filed as functional.
Assay [27] in a line: inhibitors of intracellular T. cruzi replication, confirmation, NIH3T3 host cells, beta-gal luminescence (AID 2044).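 Note: intracellular parasites grown in NIH/3T3 mouse fibroblasts as host cells; luminescent beta-galactosidase reporter signal from transgenic T. cruzi replicating inside host cells; inhibitors lower the luminescence signal.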 It is filed as functional, cell-based.
Assay [28] is described as follows: Luminescence Cell-Based Secondary HTS screen to identify cytotoxic compounds of NIH3T3 cells. [Related pubchem assays: 1885, 1968 ]. The format is functional.
Assay [29] is described as follows: cytotoxicity toward NIH3T3 fibroblasts, dose response, counter-screen, cell-based, ATP luminescence, mouse fibroblasts (AID 2010).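 Note: cells exposed to compound for about 90 hours before reading.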 The format is functional.
The nature of assay [30]: inhibitors of Trypanosoma cruzi host-cell infection, confirmation, beta-gal luminescence, NIH3T3 host cells (AID 2630). As to conditions: Mus musculus. The format is functional, cell-based.

Mu-type opioid receptor, sequence (P35372 whole entry): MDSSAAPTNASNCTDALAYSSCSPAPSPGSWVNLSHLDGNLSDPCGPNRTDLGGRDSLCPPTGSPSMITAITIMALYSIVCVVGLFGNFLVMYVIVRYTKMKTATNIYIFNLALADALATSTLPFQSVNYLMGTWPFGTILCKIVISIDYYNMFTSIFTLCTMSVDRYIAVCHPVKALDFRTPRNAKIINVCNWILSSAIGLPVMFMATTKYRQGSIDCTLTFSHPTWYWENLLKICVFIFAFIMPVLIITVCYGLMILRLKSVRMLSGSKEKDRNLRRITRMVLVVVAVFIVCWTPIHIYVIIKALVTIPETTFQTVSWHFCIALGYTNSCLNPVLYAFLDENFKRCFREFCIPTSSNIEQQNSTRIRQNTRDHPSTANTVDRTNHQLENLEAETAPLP
Beta-galactosidase, sequence (Q8VNN2 whole entry): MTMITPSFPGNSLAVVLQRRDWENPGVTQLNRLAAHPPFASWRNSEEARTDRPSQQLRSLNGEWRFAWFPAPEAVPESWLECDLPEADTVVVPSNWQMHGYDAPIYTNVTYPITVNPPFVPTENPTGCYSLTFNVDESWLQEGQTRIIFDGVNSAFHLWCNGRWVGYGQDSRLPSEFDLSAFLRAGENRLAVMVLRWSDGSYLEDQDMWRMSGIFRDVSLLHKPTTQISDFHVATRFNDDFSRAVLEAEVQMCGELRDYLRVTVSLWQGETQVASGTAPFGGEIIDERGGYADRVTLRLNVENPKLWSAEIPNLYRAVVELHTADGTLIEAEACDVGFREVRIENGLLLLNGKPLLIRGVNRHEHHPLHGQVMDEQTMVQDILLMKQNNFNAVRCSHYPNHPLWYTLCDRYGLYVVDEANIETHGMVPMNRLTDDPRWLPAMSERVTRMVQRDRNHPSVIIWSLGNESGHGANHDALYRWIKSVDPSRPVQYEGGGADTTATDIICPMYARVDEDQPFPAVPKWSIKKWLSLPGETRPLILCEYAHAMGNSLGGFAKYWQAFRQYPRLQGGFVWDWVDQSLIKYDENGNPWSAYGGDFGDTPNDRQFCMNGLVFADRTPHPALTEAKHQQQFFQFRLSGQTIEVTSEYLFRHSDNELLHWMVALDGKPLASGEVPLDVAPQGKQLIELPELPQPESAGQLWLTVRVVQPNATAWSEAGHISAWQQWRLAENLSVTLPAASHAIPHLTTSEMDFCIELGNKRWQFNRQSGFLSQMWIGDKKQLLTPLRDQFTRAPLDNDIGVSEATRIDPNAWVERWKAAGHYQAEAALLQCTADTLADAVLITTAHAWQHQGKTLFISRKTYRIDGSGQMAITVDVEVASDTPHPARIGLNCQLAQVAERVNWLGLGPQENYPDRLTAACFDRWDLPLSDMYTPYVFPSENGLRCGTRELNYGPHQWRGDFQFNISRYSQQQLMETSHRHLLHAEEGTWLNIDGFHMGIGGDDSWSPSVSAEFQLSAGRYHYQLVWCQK

Take `CCCC(=O)OCCNc1cc(Sc2nccn2C)c2nonc2c1[N+](=O)[O-]`: the IC50 in assay [1] is > 32 µM (inactive); in assay [5], 5.47 µM (active); in assay [6], 136 µM (active); in [9] it was 30.5 µM; in [13], 6.13 µM (active); in [14], 3.21 µM (active). Moreover, the results for the IC50 in [18], in assay [22] and in assay [23] were 8.31 µM (active), 5.11 µM (active) and 2.57 µM (active), respectively. Further, the EC50 in assay [2] was > 32 µM (inactive); in [3] it was > 32 µM (inactive); in assay [4], 6.43 µM (active); in [7] it was > 31.5 µM (inactive); in assay [8], 4.63 µM (active); in assay [16], 2.82 µM (active). Also, the half-maximal effective concentration (EC50) in assay [17] was 1.27 µM (active). Moreover, the cytotoxic concentration (CC50) in [10] is 19.2 µM (active); in assay [11], 13.3 µM (active); in assay [12], 16.6 µM (active). The AC50 was 1.14 µM (active) in [15], 7.22 µM (active) in assay [19], 15.7 µM (active) in [20] and 12.2 µM (active) in assay [21].

Turning to `O=C(NCCCn1ccnc1)c1cccc(S(=O)(=O)N2CCCCCC2)c1`, the AC50 is 18.9 µM (active) in assay [24] and 27.2 µM (active) in assay [25].

`COC(=O)N/N=C/c1ccc([N+](=O)[O-])o1`: the concentration giving a half-maximal response (EC50) is 0.123 µM (active) in assay [26]; 0.469 µM (active) in [27]; > 195 µM (not active) in assay [28]; > 60 µM (not active) in [29]; 0.123 µM (active) in assay [30].
